Test results from ChEMBL document CHEMBL1201862, “PubChem BioAssay data set” (2004).
The source made the active and inactive calls. Rule as the data show it, for most assays here: actives have a measured EC50 and inactives only a lower limit.

Columns and labels:
[1] = viability loss of HPDE-C7K cells – cell-based, fluorescence, HTS, primary screen (AID 431); type: functional; conditions: Homo sapiens
[2] = HPDE-C7 pancreatic duct cell viability loss – fluorescence, HTS (AID 430); type: functional, cell-based; conditions: Homo sapiens
[3] = biological target: T1, Protein RecA (Mycobacterium tuberculosis, UniProt P9WHJ3); experiment: Fluorescence Cell-Free Homogeneous Dose Retest to Identify Inhibitors of RecA-Intein Splicing Activity. [Related pubchem assays (depositor defined):AID2097, AID2223, AID489010, AID492950]; type: functional
T1 sequence (P9WHJ3 whole entry): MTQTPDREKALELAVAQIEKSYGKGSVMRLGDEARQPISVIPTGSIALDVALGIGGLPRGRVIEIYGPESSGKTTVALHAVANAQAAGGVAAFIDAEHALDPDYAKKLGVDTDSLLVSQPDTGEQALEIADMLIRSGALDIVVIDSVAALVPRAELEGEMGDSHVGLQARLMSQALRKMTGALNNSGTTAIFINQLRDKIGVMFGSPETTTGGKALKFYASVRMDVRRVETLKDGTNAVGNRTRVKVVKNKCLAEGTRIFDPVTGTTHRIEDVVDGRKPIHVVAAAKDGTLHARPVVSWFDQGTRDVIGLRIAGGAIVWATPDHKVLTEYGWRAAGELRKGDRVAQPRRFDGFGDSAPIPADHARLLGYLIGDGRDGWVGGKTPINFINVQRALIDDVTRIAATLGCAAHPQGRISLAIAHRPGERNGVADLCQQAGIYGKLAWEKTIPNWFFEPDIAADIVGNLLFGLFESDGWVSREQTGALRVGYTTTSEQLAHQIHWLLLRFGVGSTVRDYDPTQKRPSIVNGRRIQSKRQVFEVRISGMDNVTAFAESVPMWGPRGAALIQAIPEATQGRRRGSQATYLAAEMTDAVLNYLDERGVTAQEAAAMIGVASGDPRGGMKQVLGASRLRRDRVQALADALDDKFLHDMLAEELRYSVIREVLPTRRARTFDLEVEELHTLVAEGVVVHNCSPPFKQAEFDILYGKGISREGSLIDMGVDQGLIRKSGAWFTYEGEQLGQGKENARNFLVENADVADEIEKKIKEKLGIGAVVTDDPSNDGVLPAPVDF

[4] = biological target: T2, Replicative DNA helicase DnaB (Mycobacterium tuberculosis, UniProt P9WMR3); experiment: DnaB intein splicing inhibitors, dose response, biochemical, cell-free fluorescence (AID 449749); type: functional
T2 sequence (P9WMR3 whole entry): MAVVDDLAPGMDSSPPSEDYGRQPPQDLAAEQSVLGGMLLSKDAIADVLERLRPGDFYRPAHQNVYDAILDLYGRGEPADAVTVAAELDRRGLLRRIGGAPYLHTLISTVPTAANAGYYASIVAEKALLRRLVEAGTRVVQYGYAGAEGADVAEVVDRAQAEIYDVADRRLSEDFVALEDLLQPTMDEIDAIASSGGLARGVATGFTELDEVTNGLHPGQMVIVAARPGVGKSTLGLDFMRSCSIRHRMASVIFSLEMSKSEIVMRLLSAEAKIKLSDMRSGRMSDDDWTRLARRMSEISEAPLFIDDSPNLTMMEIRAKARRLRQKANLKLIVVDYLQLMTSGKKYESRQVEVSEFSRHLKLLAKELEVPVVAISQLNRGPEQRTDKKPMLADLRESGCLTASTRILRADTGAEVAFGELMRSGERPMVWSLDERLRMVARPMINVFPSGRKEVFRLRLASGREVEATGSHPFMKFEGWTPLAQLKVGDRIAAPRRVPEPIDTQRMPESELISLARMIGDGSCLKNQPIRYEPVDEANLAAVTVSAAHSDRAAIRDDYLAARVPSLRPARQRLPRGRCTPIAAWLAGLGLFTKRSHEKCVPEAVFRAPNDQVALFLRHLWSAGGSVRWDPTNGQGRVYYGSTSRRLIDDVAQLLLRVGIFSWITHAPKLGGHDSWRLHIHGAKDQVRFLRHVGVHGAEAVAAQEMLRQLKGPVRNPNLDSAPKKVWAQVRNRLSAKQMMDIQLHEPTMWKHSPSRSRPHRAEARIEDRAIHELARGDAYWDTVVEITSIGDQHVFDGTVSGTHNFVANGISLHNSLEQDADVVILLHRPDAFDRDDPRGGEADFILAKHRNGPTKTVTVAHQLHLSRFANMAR

[5] = biological target: T3, Heat shock factor protein 1 (Mus musculus, UniProt P38532); experiment: enhancement of HSF1-driven luciferase signal – cell-based, NIH3T3, luminescence, dose retest, confirmation (AID 435004); type: functional;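 also: stress induced by proteasome inhibitor MG132 added 30 min after compound; luciferase reporter driven by HSF1 response element in NIH3T3 cells; actives raise luminescence as potentiators of the MG132 stress response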
T3 sequence (P38532 whole entry): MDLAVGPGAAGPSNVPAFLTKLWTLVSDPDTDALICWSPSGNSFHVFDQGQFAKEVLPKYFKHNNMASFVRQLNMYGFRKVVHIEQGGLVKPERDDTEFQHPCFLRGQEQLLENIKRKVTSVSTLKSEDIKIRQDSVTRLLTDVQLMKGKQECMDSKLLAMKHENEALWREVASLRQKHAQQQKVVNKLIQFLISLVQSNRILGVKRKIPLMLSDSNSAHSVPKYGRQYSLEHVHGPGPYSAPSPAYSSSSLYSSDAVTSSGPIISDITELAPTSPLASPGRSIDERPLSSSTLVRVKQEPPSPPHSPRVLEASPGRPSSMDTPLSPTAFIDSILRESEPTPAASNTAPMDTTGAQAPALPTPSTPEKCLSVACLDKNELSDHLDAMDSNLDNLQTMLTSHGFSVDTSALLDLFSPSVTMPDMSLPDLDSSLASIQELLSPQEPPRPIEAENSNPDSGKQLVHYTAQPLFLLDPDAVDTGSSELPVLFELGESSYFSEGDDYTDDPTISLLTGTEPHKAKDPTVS

[6] = Luminescence Cell-Based Dose Confirmation to Identify Activators of 5'UTR Stem-Loop Driven Alpha-Synuclein mRNA Translation in H4 Neuroglioblastoma Cells. [Related pubchem assays: 1829 (Project Summary), 1814 (Primary HTS)]; type: functional
[7] = Luminescence Cell-Based Dose Response HTS to Identify Activators of Luciferase Translation or Activity in H4 […] Cells. [Related pubchem assays: 1829 (Project Summary), 1814 (Primary HTS)]; type: functional
[8] = Luminescence Cell-Based Dose Response to Identify Activators of Luciferase Translation or Activity in H4-C Neuroglioblastoma Cells. [Related pubchem assays: 1829 (Project Summary), 1814 (Primary HTS)]; type: functional
[9] = system: H4; experiment: Luminescence Cell-Based Dose Response HTS to Identify Activators of 5'UTR Stem-Loop Driven Prion Protein mRNA Translation in H4 Neuroglioblastoma Cells. [Related pubchem assays: 1829 (Project Summary), 1814 (Primary HTS)]; type: functional; conditions: Homo sapiens
[10] = Luminescence Cell-Based Dose Response to Identify Activators of 5'UTR Stem-Loop Driven Prion Protein mRNA Translation in H4-C Neuroglioblastoma Cells. [Related pubchem assays: 1829 (Project Summary), 1814 (Primary HTS)]; type: functional
[11] = Luminescence Cell-Based Dose Confirmation HTS to Identify Activators of 5'UTR Stem-Loop Driven Alpha-Synuclein mRNA Translation in H4 Neuroglioblastoma Cells. [Related pubchem assays: 1829 (Project Summary), 1814 (Primary HTS)]; type: functional
[12] = Trypanosoma cruzi growth suppression in host cells – NIH3T3 host cells, beta-gal luminescence, confirmation (AID 2044); type: functional, cell-based;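 also: intracellular parasites grown in NIH/3T3 mouse fibroblasts as host cells; luminescent beta-galactosidase reporter signal from transgenic T. cruzi replicating inside host cells; inhibitors lower the luminescence signal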
[13] = NIH3T3 cell viability loss – ATP luminescence, mouse fibroblasts, counter-screen, dose response (AID 2010); type: functional, cell-based;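 also: cells exposed to compound for about 90 hours before reading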

Row | Structure (SMILES) | EC50 [1] | EC50 [2] | EC50 [3] | AC50 [4] | EC50 [5] | EC50 [6] | EC50 [7] | EC50 [8] | EC50 [9] | EC50 [10] | EC50 [11] | EC50 [12] | EC50 [13]
1 | CC(C)(C)NC(=O)CSc1ncnc2c1nnn2Cc1ccccc1Cl | 14100 nM (active) | 11800 nM (active) | 8370 nM (active) | 6800 nM (active) | 13300 nM (active) |  |  |  |  |  |  |  | 
2 | O=C(/C=C/c1ccco1)NC1=NCCS1 |  |  |  |  |  | 428 nM (active) | 484 nM (active) | 323 nM (active) | < 100 nM (active) | 519 nM (active) | < 100 nM (active) |  | 
3 | CCC(=O)Nc1ccc(C(=O)OCc2ccccc2Cl)cc1 |  |  |  |  |  | 976 nM (active) | 37700 nM (active) | 614 nM (active) | 11700 nM (active) | 8130 nM (active) | < 100 nM (active) | 815 nM (active) | > 60000 nM (not active)
